Measured values: paper PMC11483378, “Triazole-Based Thiamine Analogues as Inhibitors of Thiamine Pyrophosphate-Dependent Enzymes: 1,3-Dicarboxylate for Metal Binding” (ACS Omega, 2024)

Tests used:
S. cerevisiae PDC = target: T1, S. cerevisiae PDC (Saccharomyces cerevisiae, UniProt P06169); design: method as in PMID 37201323; details: assay conditions of previous study; cited from earlier work
T1 construct: purchased Sigma
T1 sequence (P06169 2-563 limits assumed): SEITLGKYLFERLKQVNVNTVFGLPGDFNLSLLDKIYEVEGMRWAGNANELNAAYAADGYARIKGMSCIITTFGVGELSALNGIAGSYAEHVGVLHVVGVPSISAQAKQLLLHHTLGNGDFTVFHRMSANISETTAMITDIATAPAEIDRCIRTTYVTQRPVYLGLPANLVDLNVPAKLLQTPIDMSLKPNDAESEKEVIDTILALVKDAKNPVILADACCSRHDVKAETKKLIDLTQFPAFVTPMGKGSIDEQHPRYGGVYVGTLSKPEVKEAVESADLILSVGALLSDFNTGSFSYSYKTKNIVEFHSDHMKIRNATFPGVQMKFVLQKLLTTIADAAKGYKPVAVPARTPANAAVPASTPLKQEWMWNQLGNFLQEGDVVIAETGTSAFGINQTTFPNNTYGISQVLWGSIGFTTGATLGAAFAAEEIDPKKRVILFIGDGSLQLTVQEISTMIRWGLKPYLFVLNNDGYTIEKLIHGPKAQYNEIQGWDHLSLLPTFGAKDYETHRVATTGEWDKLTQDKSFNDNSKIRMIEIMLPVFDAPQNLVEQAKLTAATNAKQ

Porcine PDH E1 = target: T2, Porcine PDH E1 (Sus scrofa, UniProt P29804); design: method as in PMID 37201323; details: assay conditions of previous study; cited from earlier work
T2 sequence (P29804 31-390): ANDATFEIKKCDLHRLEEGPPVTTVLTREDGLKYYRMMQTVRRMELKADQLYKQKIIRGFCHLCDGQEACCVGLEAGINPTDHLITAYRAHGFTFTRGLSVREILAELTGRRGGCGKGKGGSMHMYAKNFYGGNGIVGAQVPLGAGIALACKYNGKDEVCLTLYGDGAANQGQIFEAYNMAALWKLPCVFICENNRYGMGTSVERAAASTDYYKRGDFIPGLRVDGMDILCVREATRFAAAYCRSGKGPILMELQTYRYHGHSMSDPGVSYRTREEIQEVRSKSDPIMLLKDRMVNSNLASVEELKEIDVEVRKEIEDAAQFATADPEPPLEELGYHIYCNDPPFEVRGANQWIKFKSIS

A. viridans PO = A. viridans PO (Aerococcus viridans, UniProt A9X9K8); design: method as in PMID 37201323; details: assay conditions of previous study; cited from earlier work
[1] = PAMPA (parallel artificial membrane permeability assay); assay type: in vitro ADME
Description: PAMPA – methods and results (Table S2)
PAMPA was carried out in 96-well microtiter filter plates obtained from Millipore as described1 with some modifications. Each well of the filter plate was impregnated with 15 µL of 5% hexadecane dissolved in hexane (i.e. total amount of hexadecane: 0.75 µL) for at least 10 minutes in ventilated environment to allow for complete evaporation of hexane. Donor compartments were filled with 200 µL compound-containing donor solutions of compounds dissolved in 5% DMSO, phosphate buffered saline PBS) and connected to acceptor plate prefilled with buffer (5% DMSO in PBS, pH 7.4). The resulting sandwich was incubated at room temperature under gentle shaking and wrapped in wet paper towels to avoid evaporation. After 10 hours, the sandwich was disassembled and the solutions in the acceptor and donor were transferred to a disposable UV-transparent plate. UV absorption was measured at wavelengths between 220 and 340 nm using a microplate reader (CLARIOstar).
Compounds were tested at 500 µM. Calibration to determine concentration of compounds were performed with varying compound concentrations in buffer (5% DMSO in PBS).
The artificial membrane permeability is expressed as fraction absorbed (Fa%)2 or log Pe (log of the effective permeability)1. LogD values at pH 7.4 were calculated using MarvinSketch.
Fa% = 100 ∙CA ∙VA / CD0 ∙ VD where: CA = final drug concentration in the acceptor well (µM)
VA = volume in the acceptor well (cm3)
CD0 = Initial drug concentration in the donor well (µM)
VD = volume in the donor well (cm3) log P (cm/s) = log -ln 1-CA/Cequilibrium
S = surface area (cm2), typically 0.268 cm2
Cequilibrium = theoretical equilibrium concentration = [CD ∙VD+CA ∙VA] / [VD+VA] where: CD = final drug concentration in the donor well (µM)
CA = final drug concentration in the acceptor well (µM)
Table S2. Permeability data.
Compounds Fa (%) PAMPA log Pe (cm/s) cLogD (pH = 7.4)

E. coli OGDH E1 = E. coli OGDH E1 (Escherichia coli, UniProt P0AFG3); design: method as in PMID 37201323; details: assay conditions of previous study; cited from earlier work
Sequence of E. coli OGDH E1 (P0AFG3 whole entry): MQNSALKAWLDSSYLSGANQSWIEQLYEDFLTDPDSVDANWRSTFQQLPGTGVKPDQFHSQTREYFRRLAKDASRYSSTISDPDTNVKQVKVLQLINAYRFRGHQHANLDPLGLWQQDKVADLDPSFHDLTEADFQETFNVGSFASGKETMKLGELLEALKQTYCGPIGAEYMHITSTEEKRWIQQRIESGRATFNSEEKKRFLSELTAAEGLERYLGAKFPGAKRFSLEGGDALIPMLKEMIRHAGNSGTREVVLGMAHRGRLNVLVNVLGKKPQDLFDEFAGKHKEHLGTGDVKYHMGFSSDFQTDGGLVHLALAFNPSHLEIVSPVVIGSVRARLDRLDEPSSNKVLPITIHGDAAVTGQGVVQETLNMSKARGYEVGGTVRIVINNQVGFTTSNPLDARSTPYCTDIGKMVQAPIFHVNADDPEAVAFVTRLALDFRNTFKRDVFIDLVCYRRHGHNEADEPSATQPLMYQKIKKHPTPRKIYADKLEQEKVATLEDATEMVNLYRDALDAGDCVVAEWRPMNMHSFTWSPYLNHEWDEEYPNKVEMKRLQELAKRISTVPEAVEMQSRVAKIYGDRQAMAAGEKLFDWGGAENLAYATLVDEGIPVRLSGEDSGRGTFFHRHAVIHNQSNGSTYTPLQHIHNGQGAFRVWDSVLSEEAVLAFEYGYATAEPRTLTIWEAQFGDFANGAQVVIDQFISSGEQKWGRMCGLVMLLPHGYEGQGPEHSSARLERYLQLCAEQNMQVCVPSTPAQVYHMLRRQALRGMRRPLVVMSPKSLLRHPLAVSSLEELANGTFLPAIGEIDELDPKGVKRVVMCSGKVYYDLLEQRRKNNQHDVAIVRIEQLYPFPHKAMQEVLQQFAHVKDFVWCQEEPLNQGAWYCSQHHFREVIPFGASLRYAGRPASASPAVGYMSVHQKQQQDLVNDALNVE

Sequence of A. viridans PO (A9X9K8 entry or part of it): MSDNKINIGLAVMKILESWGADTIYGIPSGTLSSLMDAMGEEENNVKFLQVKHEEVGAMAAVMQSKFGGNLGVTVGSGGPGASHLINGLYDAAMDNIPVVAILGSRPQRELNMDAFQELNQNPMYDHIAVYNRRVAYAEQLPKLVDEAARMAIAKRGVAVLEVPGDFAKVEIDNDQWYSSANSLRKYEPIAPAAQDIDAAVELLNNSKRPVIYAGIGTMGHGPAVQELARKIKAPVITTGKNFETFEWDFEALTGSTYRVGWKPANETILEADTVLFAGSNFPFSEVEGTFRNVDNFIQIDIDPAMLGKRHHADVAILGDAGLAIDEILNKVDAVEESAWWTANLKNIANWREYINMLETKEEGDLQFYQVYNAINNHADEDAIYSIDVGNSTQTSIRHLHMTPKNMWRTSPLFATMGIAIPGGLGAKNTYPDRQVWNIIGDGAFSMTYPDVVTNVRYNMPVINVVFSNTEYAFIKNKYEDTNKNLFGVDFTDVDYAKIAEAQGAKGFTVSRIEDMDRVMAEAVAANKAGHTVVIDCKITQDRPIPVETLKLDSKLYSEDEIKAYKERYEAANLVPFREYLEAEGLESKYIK

For `Cc1ncc(Cn2cc(CCOP(=O)(O)O)nn2)c(N)n1` [compound 5], the IC50 (S. cerevisiae PDC) is listed as 1300 µM, the IC50 (Porcine PDH E1) is listed as 6.6 µM and the IC50 (A. viridans PO) is listed as 348 µM. For the same compound, the “membrane permeability in PAMPA (in words)” value [1] was “membrane-impermeable”, the Papp at 10 h, 500 µM ([1]; PAMPA, compounds at 500 µM, 5% DMSO in PBS pH 7.4, 10 hours, room temperature, read-out: PAMPA log Pe (converted)) was 0.398 ×10⁻⁶ cm/s and the “Fa (fraction absorbed)” value ([1]; compounds at 500 µM, 5% DMSO in PBS pH 7.4, 10 hours, room temperature) was 2%. For the same compound, the IC50 (E. coli OGDH E1) was 170 µM.
